Experimental data as given in US20230255873A1, “COSMETIC OR DERMATOLOGICAL PEPTIDE-BASED TREATMENT OF THE SKIN AND ITS INTEGUMENTS” (Sederma, priority 2020, published 2023).
The star is where a group is joined. Palmitoyl = CCCCCCCCCCCCCCCC(=O)*

Columns and labels:
P. acnes = P. acnes growth curve (time to OD600 nm = 0.5); format: cell-based, Propionibacterium acnes; details: for Time (in hour) to reach OD600 nm = 0.5: vehicle 42-44 h
Method: 1—P. acnes growth curve (same protocol as described above at point 1.4)
P. acnes is thawed and grown over 3 days in M20 media. Then, optical density at 600 nm (OD600) is measured and 2×10^6 CFU*/mL are plated in well plates. P. acnes is then treated with 6 ppm, 9 ppm and 12 ppm of peptides. To follow bacterial cell multiplication, OD600 is measured regularly for about 1 week. […] Statistical evaluations are performed on results using a Student t test. Two independent experiments are performed (N=2).

[1] = system: normal human keratinocytes (NHK); assay: Involucrin quantification by immunohistochemistry in NHK; format: cell-based; details: 5 ppm
Method: Normal human keratinocytes (NHK) are grown on wells plate. When subconfluence was reached, cells received various concentrations of the peptides. After few days, evaluation of differentiation is compared to solvent control under microscope and cells are fixed to allow the study of involucrin by immunohistochemistry.
Involucrin is an early marker of keratinocytes differentiation. The below table show the percentage of variation of involucrin vs. Control.

[2] = molecular target: extracellular lipases of P. acnes (Propionibacterium acnes); assay: cell-based or functional assay

Molecule | Delay in P. acnes growth versus vehicle (P. acnes; 6 ppm) | Time (in hour) to reach OD600 nm = 0.5 (P. acnes; 6 ppm) | Delay in P. acnes growth versus vehicle (P. acnes; 9 ppm) | Time (in hour) to reach OD600 nm = 0.5 (P. acnes; 9 ppm) | Delay in P. acnes growth versus vehicle (P. acnes; 12 ppm) | Time (in hour) to reach OD600 nm = 0.5 (P. acnes; 12 ppm) | Involucrin (% var vs. Control) [1] | Reduction in lipase activity of P. acnes (4-MUO fluorescent probe), variation (%) vs solvent control, 6 ppm of peptide [2] | Reduction in lipase activity of P. acnes (4-MUO fluorescent probe), variation (%) vs solvent control, 9 ppm of peptide [2] | Reduction in lipase activity of P. acnes (4-MUO fluorescent probe), variation (%) vs solvent control, 12 ppm of peptide [2]
Pal-GKTSKS-OH | +2 h | 45.6 h | +12 h | 56.2 h | +26 h | 70.2 h | – | – | – | –
Pal-KTSKSA-OH (Palmitoyl-KTSKSA-OH; SMILES CCCCCCCCCCCCCCCC(=O)N[C@@H](CCCCN)C(=O)N[C@H](C(=O)N[C@@H](CO)C(=O)N[C@@H](CCCCN)C(=O)N[C@@H](CO)C(=O)N[C@@H](C)C(=O)O)[C@@H](C)O) [other preferred peptide of the invention, palmitoyl hexapeptide KTSKSA] | +5 h | 47.3 h | +15 h | 57.9 h | +18 h | 60.5 h | +152%; p < 0.01 | – | – | –
Pal-KTSKT-OH (Palmitoyl-KTSKT-OH; SMILES CCCCCCCCCCCCCCCC(=O)N[C@@H](CCCCN)C(=O)N[C@H](C(=O)N[C@@H](CO)C(=O)N[C@@H](CCCCN)C(=O)N[C@H](C(=O)O)[C@@H](C)O)[C@@H](C)O) [other preferred peptide of the invention, palmitoyl pentapeptide KTSKT] | +5 h | 47.7 h | +13 h | 55.2 h | +43 h | 85.1 h | +125%; p < 0.01 | – | – | –
Palmitoyl-KTSKS-OH (SMILES CCCCCCCCCCCCCCCC(=O)N[C@@H](CCCCN)C(=O)N[C@H](C(=O)N[C@@H](CO)C(=O)N[C@@H](CCCCN)C(=O)N[C@@H](CO)C(=O)O)[C@@H](C)O) [Pal-KTSKS-OH] | – | – | – | – | – | – | – | -22% | -64% | -88%
